# Results taken from ChEMBL document CHEMBL3865816, “Design, synthesis and biological evaluation of novel azaspiro analogs of linezolid as antibacterial and antitubercular agents” (Eur J Med Chem, 2016).
# Tests used:
# Assay type in all cases: functional
# Pseudomonas aeruginosa [1] = assay: Antibacterial activity against Pseudomonas aeruginosa NCIM 2036 measured after 8 hrs by spectrophotometric method; details: NCIM 2036, 8 h
# Staphylococcus aureus [2] = assay: Antibacterial activity against Staphylococcus aureus NCIM 2079 measured after 12 hrs by spectrophotometric method; details: NCIM 2079, 12 h
# Escherichia coli [3] = assay: Antibacterial activity against Escherichia coli NCIM 2688 measured after 8 hrs by spectrophotometric method; details: NCIM 2688, 8 h
# Bacillus subtilis [4] = assay: Antibacterial activity against Bacillus subtilis NCIM 2010 measured after 12 hrs by spectrophotometric method; details: NCIM 2010, 12 h
# [5] = tested on: Mycobacterium tuberculosis; assay: Antitubercular activity against dormant stage Mycobacterium tuberculosis H37Ra measured after 12 days by XTT assay; details: 288 h
# Escherichia coli [6] = assay: Antibacterial activity against Escherichia coli NCIM 2688 at 30 ug/ml measured after 8 hrs by spectrophotometric method; details: NCIM 2688, 8 h
# Escherichia coli [7] = assay: Antibacterial activity against Escherichia coli NCIM 2688 at 10 ug/ml measured after 8 hrs by spectrophotometric method; details: NCIM 2688, 8 h
# Escherichia coli [8] = assay: Antibacterial activity against Escherichia coli NCIM 2688 at 3 ug/ml measured after 8 hrs by spectrophotometric method; details: NCIM 2688, 8 h
# Pseudomonas aeruginosa [9] = assay: Antibacterial activity against Pseudomonas aeruginosa NCIM 2036 at 30 ug/ml measured after 8 hrs by spectrophotometric method; details: NCIM 2036, 8 h
# Pseudomonas aeruginosa [10] = assay: Antibacterial activity against Pseudomonas aeruginosa NCIM 2036 at 10 ug/ml measured after 8 hrs by spectrophotometric method; details: NCIM 2036, 8 h
# Pseudomonas aeruginosa [11] = assay: Antibacterial activity against Pseudomonas aeruginosa NCIM 2036 at 3 ug/ml measured after 8 hrs by spectrophotometric method; details: NCIM 2036, 8 h
# Staphylococcus aureus [12] = assay: Antibacterial activity against Staphylococcus aureus NCIM 2079 at 30 ug/ml measured after 12 hrs by spectrophotometric method; details: NCIM 2079, 12 h
# Staphylococcus aureus [13] = assay: Antibacterial activity against Staphylococcus aureus NCIM 2079 at 10 ug/ml measured after 12 hrs by spectrophotometric method; details: NCIM 2079, 12 h
# Staphylococcus aureus [14] = assay: Antibacterial activity against Staphylococcus aureus NCIM 2079 at 3 ug/ml measured after 12 hrs by spectrophotometric method; details: NCIM 2079, 12 h
# Bacillus subtilis [15] = assay: Antibacterial activity against Bacillus subtilis NCIM 2010 at 30 ug/ml measured after 12 hrs by spectrophotometric method; details: NCIM 2010, 12 h
# Bacillus subtilis [16] = assay: Antibacterial activity against Bacillus subtilis NCIM 2010 at 10 ug/ml measured after 12 hrs by spectrophotometric method; details: NCIM 2010, 12 h
# Bacillus subtilis [17] = assay: Antibacterial activity against Bacillus subtilis NCIM 2010 at 3 ug/ml measured after 12 hrs by spectrophotometric method; details: NCIM 2010, 12 h
# [18] = tested on: Mycobacterium tuberculosis; assay: Antitubercular activity against dormant stage Mycobacterium tuberculosis H37Ra at 30 ug/ml measured after 12 days by XTT assay; details: 288 h
# [19] = tested on: Mycobacterium tuberculosis; assay: Antitubercular activity against dormant stage Mycobacterium tuberculosis H37Ra at 10 ug/ml measured after 12 days by XTT assay; details: 288 h
# [20] = tested on: Mycobacterium tuberculosis; assay: Antitubercular activity against dormant stage Mycobacterium tuberculosis H37Ra at 3 ug/ml measured after 12 days by XTT assay; details: 288 h
SMILES,IC50 (Pseudomonas aeruginosa [1]),MIC (Pseudomonas aeruginosa [1]),IC50 (Staphylococcus aureus [2]),MIC (Staphylococcus aureus [2]),IC50 (Escherichia coli [3]),MIC (Escherichia coli [3]),IC50 (Bacillus subtilis [4]),MIC (Bacillus subtilis [4]),IC50 [5],MIC [5],inhibition at 30 µg/mL (Escherichia coli [6]),inhibition at 10 µg/mL (Escherichia coli [7]),inhibition at 3 µg/mL (Escherichia coli [8]),inhibition at 30 µg/mL (Pseudomonas aeruginosa [9]),inhibition at 10 µg/mL (Pseudomonas aeruginosa [10]),inhibition at 3 µg/mL (Pseudomonas aeruginosa [11]),inhibition at 30 µg/mL (Staphylococcus aureus [12]),inhibition at 10 µg/mL (Staphylococcus aureus [13]),inhibition at 3 µg/mL (Staphylococcus aureus [14]),inhibition at 30 µg/mL (Bacillus subtilis [15]),other results
O=C(NC[C@H]1CN(c2ccc(N3CC4(COC4)C3)c(F)c2)C(=O)O1)c1ccc(C(F)(F)F)cc1,1.19 mg/L,18.1 mg/L,0.67 mg/L,22.3 mg/L,> 100 mg/L,> 100 mg/L,> 100 mg/L,> 100 mg/L,> 100 mg/L,> 100 mg/L,74.1%,59.7%,33.8%,98.3%,84.9%,74.9%,92.2%,84.4%,78.4%,95.8%,inhibition at 10 µg/mL (Bacillus subtilis [16]): 78.8%; inhibition at 3 µg/mL (Bacillus subtilis [17]): 65.4%; inhibition at 30 µg/mL [18]: -20.7%; inhibition at 10 µg/mL [19]: -4.6%; inhibition at 3 µg/mL [20]: -10.1%
N#Cc1ccc(NC(=S)NC[C@H]2CN(c3ccc(N4CC5(COC5)C4)c(F)c3)C(=O)O2)cc1,> 100 mg/L,> 100 mg/L,1.03 mg/L,11.2 mg/L,1 mg/L,9.54 mg/L,0.86 mg/L,3.87 mg/L,> 100 mg/L,> 100 mg/L,95.7%,93.2%,78.2%,50%,46.6%,22.1%,94.3%,91.6%,75.6%,98%,inhibition at 10 µg/mL (Bacillus subtilis [16]): 97.6%; inhibition at 3 µg/mL (Bacillus subtilis [17]): 81.3%; inhibition at 30 µg/mL [18]: 34.7%; inhibition at 10 µg/mL [19]: 58.1%; inhibition at 3 µg/mL [20]: 34.5%
CC(C)NC(=S)NC[C@H]1CN(c2ccc(N3CC4(COC4)C3)c(F)c2)C(=O)O1,1.27 mg/L,32.3 mg/L,> 100 mg/L,> 100 mg/L,> 100 mg/L,> 100 mg/L,0.64 mg/L,6.04 mg/L,> 100 mg/L,> 100 mg/L,91.3%,58.9%,46.7%,91.4%,83.8%,72.6%,93%,75.2%,58.8%,99.3%,inhibition at 10 µg/mL (Bacillus subtilis [16]): 95.1%; inhibition at 3 µg/mL (Bacillus subtilis [17]): 82%; inhibition at 30 µg/mL [18]: 48.8%; inhibition at 10 µg/mL [19]: 7.27%; inhibition at 3 µg/mL [20]: -11.7%
CC1(C)[C@@]2(C)CC[C@]1(C(=O)NC[C@H]1CN(c3ccc(N4CC5(COC5)C4)c(F)c3)C(=O)O1)OC2=O,> 100 mg/L,> 100 mg/L,> 100 mg/L,> 100 mg/L,> 100 mg/L,> 100 mg/L,> 100 mg/L,> 100 mg/L,> 100 mg/L,> 100 mg/L,39.5%,28.8%,20%,56.4%,55%,50.6%,70.2%,51.1%,50.6%,69.8%,inhibition at 10 µg/mL (Bacillus subtilis [16]): 53.8%; inhibition at 3 µg/mL (Bacillus subtilis [17]): 40.5%; inhibition at 30 µg/mL [18]: 15.6%; inhibition at 10 µg/mL [19]: -38.5%; inhibition at 3 µg/mL [20]: 9.81%
O=C1O[C@@H](CNS(=O)(=O)c2ccc(Cl)s2)CN1c1ccc(N2CC3(COC3)C2)c(F)c1,1.13 mg/L,3.52 mg/L,0.46 mg/L,1.31 mg/L,0.89 mg/L,15.4 mg/L,0.64 mg/L,2.2 mg/L,> 100 mg/L,> 100 mg/L,97.8%,87.4%,80.3%,99%,97.1%,86.6%,96.9%,96.5%,94.3%,99.2%,inhibition at 10 µg/mL (Bacillus subtilis [16]): 97.2%; inhibition at 3 µg/mL (Bacillus subtilis [17]): 90%; inhibition at 30 µg/mL [18]: 74.6%; inhibition at 10 µg/mL [19]: -6.64%; inhibition at 3 µg/mL [20]: -14.5%
